pIC50: −log10 of the molar value.

For orientation: pIC50 means the negative decadic logarithm of the IC50, by convention in mol/L. The low end stands for a large IC50, the high end for a small IC50.

PRS (prolyl-tRNA synthetase) protein, PRS portion of EPRS, sequence (P07814 1007-1512): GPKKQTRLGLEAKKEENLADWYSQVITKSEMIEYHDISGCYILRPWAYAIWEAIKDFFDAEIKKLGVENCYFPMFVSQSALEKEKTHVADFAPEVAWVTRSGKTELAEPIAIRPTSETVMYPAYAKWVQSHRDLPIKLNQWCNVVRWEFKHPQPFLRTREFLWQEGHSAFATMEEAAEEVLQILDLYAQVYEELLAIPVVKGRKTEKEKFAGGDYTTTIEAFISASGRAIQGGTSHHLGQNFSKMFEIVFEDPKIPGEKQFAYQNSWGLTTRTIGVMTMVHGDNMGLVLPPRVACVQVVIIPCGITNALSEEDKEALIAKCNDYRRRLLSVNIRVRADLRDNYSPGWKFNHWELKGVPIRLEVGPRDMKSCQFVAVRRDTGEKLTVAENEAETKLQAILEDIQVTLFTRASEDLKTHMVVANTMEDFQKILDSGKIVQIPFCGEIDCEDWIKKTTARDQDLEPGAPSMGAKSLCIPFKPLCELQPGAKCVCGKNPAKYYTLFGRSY

This assay concerns the target PRS (prolyl-tRNA synthetase) protein, PRS portion of EPRS (Homo sapiens (Human), UniProt P07814). As to the kind of experiment: PRS enzyme activity inhibition experiment ([3H]proline, liquid scintillation). It is filed as biochemical. The conditions noted are these: purified PRS protein, 37° C. for 5 to 10 minutes. The method, boiled down:
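Values are % inhibition or IC50 ranges (A ≤100 nM, B 100–500 nM, C ≥500 nM) from [3H]proline incorporation measured by liquid scintillation. PRS portion of human EPRS, reacted 5–10 min at 37 °C in pH 7.4 phosphate buffer containing 5 mM ATP and tRNA, compound at 1 μM.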
As to `O[C@H]1CCCN[C@@H]1CCCn1cnc2cc(Cl)cc(-c3cnc(C4CC4)s3)c21` [Example 100, (2R,3S)-2-(3-(5-chloro-7-(2-cyclopropylthiazol-5-yl)-1H-benzo[d]imidazol-1-yl)propyl)piperidin-3-ol], the pIC50 was 6.30 to 7.00.

`O[C@H]1CCCN[C@@H]1CCCn1cnc2cccc(OC(F)(F)F)c21` [Example 17, (2R,3S)-2-(3-(7-(trifluoromethoxy)-1H-benzo[d]imidazol-1-yl)propyl)piperidin-3-ol] gave a pIC50 of at most 6.30.

`O[C@H]1CCCN[C@@H]1/C=C/Cn1cnc2ccc(-c3cccc(C(F)(F)F)c3)cc21` [Example 192, (2R,3S)-2-((E)-3-(6-(3-(trifluoromethyl)phenyl)-1H-benzo[d]imidazol-1-yl)prop-1-enyl)piperidin-3-ol] gave a pIC50 of 6.30 to 7.00.

`O=c1[nH]c2cc(Br)ccc2n1CCC[C@H]1NCCC[C@@H]1O` [Example 160, 5-bromo-1-(3-((2R,3S)-3-hydroxypiperidin-2-yl)propyl)-1H-benzo[d]imidazol-2(3H)-one]: the pIC50 is at most 6.30.

`OCc1nc2cc(Cl)c(Cl)cc2n1C/C(F)=C/[C@H]1NCCC[C@@H]1O` [Example 220, (2R,3S)-2-((Z)-3-(5,6-dichloro-2-(hydroxymethyl)-1H-benzo[d]imidazol-1-yl)-2-fluoroprop-1-en-1-yl)piperidin-3-ol] showed a pIC50 of at most 6.30.

As to `O[C@H]1CCCN[C@@H]1/C=C/Cn1cnc2cc(Br)c(Br)cc21` [Example 170, (2R,3S)-2-((E)-3-(5,6-dibromo-1H-benzo[d]imidazol-1-yl)prop-1-en-1-yl)piperidin-3-ol], the pIC50 was 6.30 to 7.00.

`O[C@H]1CCCN[C@@H]1CCCn1cnc2c(Cl)c(Cl)ccc21` [Example 40, (2R,3S)-2-(3-(4,5-dichloro-1H-benzo[d]imidazol-1-yl)propyl)piperidin-3-ol] had a pIC50 of at least 7.00.

`O[C@H]1CCCN[C@@H]1/C=C/Cn1cnc2ccc(-c3cccc(Cl)c3)cc21` [Example 190, (2R,3S)-2-((E)-3-(6-(3-chlorophenyl)-1H-benzo[d]imidazol-1-yl)prop-1-en-1-yl)piperidin-3-ol]: the pIC50 was 6.30 to 7.00.

The compound `CC(C)Cn1cc(-c2cc(Cl)cc3ncn(CCC[C@H]4NCCC[C@@H]4O)c23)cn1` [Example 115, (2R,3S)-2-(3-(5-chloro-7-(1-isobutyl-1H-pyrazol-4-yl)-1H-benzo[d]imidazol-1-yl)propyl)piperidin-3-ol] had a negative-log IC50 (pIC50) of 6.30 to 7.00.

Compound `Cc1c(Cl)cnc2c1ncn2C/C=C/[C@H]1NCCC[C@@H]1O` [Example 188, (2R,3S)-2-((E)-3-(6-chloro-7-methyl-3H-imidazo[4,5-b]pyridin-3-yl)prop-1-en-1-yl)piperidin-3-ol] gave a pIC50 of at most 6.30.

Consider `CN(C)C(=O)c1cn(C/C=C/[C@H]2NCCC[C@@H]2O)c2ccc(Br)cc12` [Example 216, 5-bromo-1-((E)-3-((2R,3S)-3-hydroxypiperidin-2-yl)allyl)-N,N-dimethyl-1H-indole-3-carboxamide], for which the pIC50 was at most 6.30.

In turn, `COC(=O)c1cn(C/C=C/[C@H]2NCCC[C@@H]2O)c2cccc(Cl)c12` [Example 210, methyl 4-chloro-1-((E)-3-((2R,3S)-3-hydroxypiperidin-2-yl)allyl)-1H-indole-3-carboxylate] gave a pIC50 of at most 6.30.

Turning to `O=[N+]([O-])c1c(Br)ccc2c1ncn2C/C=C/[C@H]1NCCC[C@@H]1O` [Example 176, (2R,3S)-2-((E)-3-(5-bromo-4-nitro-1H-benzo[d]imidazol-1-yl)prop-1-en-1-yl)piperidin-3-ol], the pIC50 was at most 6.30.

Regarding `Cc1cc(Br)cc2c1ncn2CCC[C@H]1NCCC[C@@H]1O` [Example 63, (2R,3S)-2-(3-(6-bromo-4-methyl-1H-benzo[d]imidazol-1-yl)propyl)piperidin-3-ol], the pIC50 was at least 7.00.

For the compound `CC(C)(C)n1cc(-c2cc(Cl)cc3ncn(CCC[C@H]4NCCC[C@@H]4O)c23)cn1` [Example 106, (2R,3S)-2-(3-(7-(1-(tert-butyl)-1H-pyrazol-4-yl)-5-chloro-1H-benzo[d]imidazol-1-yl)propyl)piperidin-3-ol], the pIC50 was 6.30 to 7.00.

For `O[C@H]1CCCN[C@@H]1/C=C/Cn1ncc2cc(Cl)cnc21` [Example 200, (2R,3S)-2-((E)-3-(5-chloro-1H-pyrazolo[3,4-b]pyridin-1-yl)prop-1-en-1-yl)piperidin-3-ol], the pIC50 was at most 6.30.

As for `Nc1nc2cc(Cl)c(Cl)cc2n1CCC[C@H]1NCCC[C@@H]1O` [Example 148, (2R,3S)-2-(3-(2-amino-5,6-dichloro-1H-benzo[d]imidazol-1-yl)propyl)piperidin-3-ol], the pIC50 was 6.30 to 7.00.

Turning to `O[C@H]1CCCN[C@@H]1/C=C/Cn1ccc2c(Cl)ncnc21` [Example 199, (2R,3S)-2-((E)-3-(4-chloro-7H-pyrrolo[2,3-d]pyrimidin-7-yl)prop-1-en-1-yl)piperidin-3-ol], the pIC50 is at most 6.30.

Take `O[C@H]1CCCN[C@@H]1CCCn1cnc2cccc(F)c21` [Example 9, (2R,3S)-2-(3-(7-fluoro-1H-benzo[d]imidazol-1-yl)propyl)piperidin-3-ol]: the pIC50 was at most 6.30.

Compound `Oc1nc2ccccc2n1CCC[C@H]1NCCC[C@@H]1O` [Example 143, 1-(3-((2R,3S)-3-hydroxypiperidin-2-yl)propyl)-1H-benzo[d]imidazol-2-ol] showed a negative-log IC50 (pIC50) of at most 6.30.

Turning to `COC(=O)c1cn(CCC[C@H]2NCCC[C@@H]2O)c2c(Br)cccc12` [Example 149, methyl 7-bromo-1-(3-((2R,3S)-3-hydroxypiperidin-2-yl)propyl)-1H-indole-3-carboxylate], the pIC50 was 6.30 to 7.00.

`O[C@H]1CCCN[C@@H]1CCCn1nc(-c2cnn(C(F)F)c2)c2cc(Cl)ccc21` [Example 157, (2R,3S)-2-(3-(5-chloro-3-(1-(difluoromethyl)-1H-pyrazol-4-yl)-1H-indazol-1-yl)propyl)piperidin-3-ol]: the negative logarithm of the IC50 (pIC50) is at most 6.30.

In turn, `CN(C)c1ncnc2c1ncn2CCC[C@H]1NCCC[C@@H]1O` [Example 137, (2R,3S)-2-(3-(6-(dimethylamino)-9H-purin-9-yl)propyl)piperidin-3-ol] gave a pIC50 of at most 6.30.

On to `O[C@H]1CCCN[C@@H]1CCCn1cnc2ccc(C(F)(F)F)nc21` [Example 129, (2R,3S)-2-(3-(5-(trifluoromethyl)-3H-imidazo[4,5-b]pyridin-3-yl)propyl)piperidin-3-ol], for which the pIC50 is at most 6.30.

On to `Cc1ccc2c(ncn2CCC[C@H]2NCCC[C@@H]2O)c1Cl` [Example 44, (2R,3S)-2-(3-(4-chloro-5-methyl-1H-benzo[d]imidazol-1-yl)propyl)piperidin-3-ol], for which the pIC50 was 6.30 to 7.00.

Compound `O[C@H]1CCCN[C@@H]1CCCn1cnc2c(N3CCCC3)cccc21` [Example 18, (2R,3S)-2-(3-(4-(pyrrolidin-1-yl)-1H-benzo[d]imidazol-1-yl)propyl)piperidin-3-ol] gave a pIC50 of at most 6.30.

Turning to `Cc1cc(Cl)cc2c1ncn2CCC[C@H]1NCCC[C@@H]1O` [Example 61, (2R,3S)-2-(3-(6-chloro-4-methyl-1H-benzo[d]imidazol-1-yl)propyl)piperidin-3-ol], the pIC50 was at least 7.00.

As to `O[C@H]1CCCN[C@@H]1CCCn1cnc2nc(Br)ccc21` [Example 119, (2R,3S)-2-(3-(5-bromo-1H-imidazo[4,5-b]pyridin-1-yl)propyl)piperidin-3-ol], the pIC50 is at most 6.30.

The values above are taken from US10981917B2, “Heterocyclic compound, its preparation method, and pharmaceutical composition comprising the same” (Daewoong Pharmaceutical Co., Ltd., priority 2017, dated 2021).
